# Measured values published in patent US20020177120A1, “ASSAYS FOR APOTOSIS MODULATORS” (priority 1999, published 2002).
# System: F9-1-13 cells
# Assay: Cell-based FRET reporter assay in F9-1-13 (SgAT) cells
# Set-up: species or system human
# Text: Transfection of pcDNA3VH-SgAT and pcDNA3VH-SnAT into U-138 cells (using methods described above) resulted initially in few colonies and FRET signal was lost in many clones during expansion, however, from among the various subclones the F9-1-13 (pcDNA3VH-SgAT transfected; ATCC No. PTA-84) and F10-24-2 (pcDNA3-SnAT transfected) subclones were eventually expanded and shown to express stable FRET signals. As desired, the FRET signal expressed in F9-1-13 decreased in response to both staurosporin and anti-Fas antibody treatment of cells, while the FRET signal expressed by the F10-24-2 control cells, (i.e., lacking a caspase substrate domain), was unaffected following staurosporin or anti-Fas antibody treatment. […] F9-1-13 therefore appeared suitable for microtiter assays, and perhaps use in HTS assays for screening to identify and select modulators of apoptosis.
# Studies were initiated to adapt the experimental cell-based FRET assay of EXAMPLE 5 to a format suitable for use in high-throughput screening. First, the assay was scaled down from a 24-well to a 96-well plate format. Cells from three different F9 parental cultures were plated in a black-sided 96-well plates (Costar #3904) at a density of 32,000 cells/well (˜1×10^5 cells/cm^2); allowed to adhere overnight; and then the media was replaced with either 100 μl fresh media containing inducer (5 μM staurosporin in 0.25% DMSO vehicle) or 100 μl containing only vehicle (0.25% DMSO). After an overnight incubation, fluorescence measurements were made to evaluate FRET signal changes. […] The assay therefore appeared to be adaptable to a 96-well format but it was not initially clear how signal might be improved to increase the signal-to-background ratio.
# A 96-well FRET assay was evaluated for inter-assay well variability and inter-plate variability. Possible signal drift during measurement of the FRET fluorescence signal was evaluated using one of two different robotics-compatible rapid fluorescence plate readers (SpeedReader or Cytofluor II). After plating at an initial density of about 60,000 cells/well, and overnight culture F9-1-13 cells were treated with 5 μM staurosporin, or vehicle. After an overnight incubation in staurosporin (i.e., 16-24 hrs.), the plates were either washed, or not washed, and then assayed repeatedly over the next 1.5 hours using either of the plate readers. […] However, using the same assay conditions but with anti-Fas antibody as an inducer, different results were recorded. […] The basis for the observed differences in measuring devices is not clear, but may relate to the design of the light source and/or the sensitivity of the detection circuitry in the two different respective fluorescence readers as well as possible different means for optically or digitally subtracting background incident radiation.
# Assay Confirmation: The following experiment was performed to validate the ability of the 96-well FRET assay to detect inhibitors of apoptosis: namely, F9-1-13 cells (n=5 wells) were treated with 50-100 μM Z-VAD-fmk (a broad spectrum caspase inhibitor) or vehicle (n=55) in randomized wells of a 96-well plate. All of these wells, and six additional positive control wells (i.e., lacking the inhibitor), were treated with 5 μM staurosporine in 0.25% DMSO vehicle. Six negative control wells were treated with vehicle only (0.25% DMSO). After overnight incubation, FRET signal changes were evaluated as described above.
# Three alternatives to staurosporine induction were evaluated: serum withdrawal; c2-ceramide treatment; and induction via engagement of the CD95/Fas receptor with anti-Fas antibody. […] To increase the proportion of adherent cells, poly-D-lysine and 0.1% gelatin were evaluated in anti-Fas antibody treated F9-1-13 cells. […] Anti-Fas antibody was therefore chosen as a preferred inducer of apoptosis for high-throughput screening. […]
smiles,measurement,setting,value
CN[C@@H]1C[C@H]2O[C@@](C)([C@@H]1OC)n1c3ccccc3c3c4c(c5c6ccccc6n2c5c31)C(=O)NC4 [staurosporin],FRET signal compared to the vehicle control,"96-well, three F9 parental cultures, 32,000 cells/well, 5 μM overnight",significant (P<0.05) reduction in the FRET signal
same,time to measurable changes in FRET signal,"60,000 cells/well, 5 μM, either fluorescence reader",≤ 4 h
same,FRET signal response to inducer treatment,F9-1-13 subclone,decreased
same,FRET reporter cleavage by western blot after induction,staurosporin induction,significant (but not complete) cleavage of reporter
